The text below walks through data of ChEMBL document CHEMBL5291721, “A preclinical secondary pharmacology resource illuminates target-adverse drug reaction associations of marketed drugs” (Nat Commun, 2023).

The target in one test is T1, Androgen receptor (Rattus norvegicus, UniProt P15207).
T1 sequence (P15207 whole entry): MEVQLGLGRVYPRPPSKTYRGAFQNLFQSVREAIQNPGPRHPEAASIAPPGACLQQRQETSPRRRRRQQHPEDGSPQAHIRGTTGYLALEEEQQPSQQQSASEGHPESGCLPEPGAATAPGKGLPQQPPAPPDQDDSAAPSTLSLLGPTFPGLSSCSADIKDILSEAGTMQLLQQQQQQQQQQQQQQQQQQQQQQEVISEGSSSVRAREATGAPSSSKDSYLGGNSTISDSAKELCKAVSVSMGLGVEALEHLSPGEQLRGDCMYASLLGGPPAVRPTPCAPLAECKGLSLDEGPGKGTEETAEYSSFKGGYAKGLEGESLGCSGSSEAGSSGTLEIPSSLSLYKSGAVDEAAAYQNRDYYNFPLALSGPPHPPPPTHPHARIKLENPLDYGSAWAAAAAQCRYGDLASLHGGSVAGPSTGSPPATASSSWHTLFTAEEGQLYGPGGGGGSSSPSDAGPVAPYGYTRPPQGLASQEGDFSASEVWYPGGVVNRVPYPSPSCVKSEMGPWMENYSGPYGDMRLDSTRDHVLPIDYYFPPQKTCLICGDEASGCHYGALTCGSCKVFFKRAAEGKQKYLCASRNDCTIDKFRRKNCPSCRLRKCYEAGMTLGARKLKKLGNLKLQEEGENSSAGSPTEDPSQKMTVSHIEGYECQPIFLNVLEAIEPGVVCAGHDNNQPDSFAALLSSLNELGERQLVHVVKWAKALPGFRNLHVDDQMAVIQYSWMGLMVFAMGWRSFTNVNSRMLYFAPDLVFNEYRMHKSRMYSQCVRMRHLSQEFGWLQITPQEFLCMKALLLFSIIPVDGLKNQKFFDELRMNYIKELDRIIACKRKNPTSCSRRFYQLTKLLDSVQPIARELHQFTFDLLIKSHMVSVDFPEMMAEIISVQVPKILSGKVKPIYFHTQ
The test is classed as functional.

In test [1] the target is T2, Histamine H1 receptor (Homo sapiens, UniProt P35367). The test is classed as functional, cell-based.
T2 sequence (P35367 whole entry): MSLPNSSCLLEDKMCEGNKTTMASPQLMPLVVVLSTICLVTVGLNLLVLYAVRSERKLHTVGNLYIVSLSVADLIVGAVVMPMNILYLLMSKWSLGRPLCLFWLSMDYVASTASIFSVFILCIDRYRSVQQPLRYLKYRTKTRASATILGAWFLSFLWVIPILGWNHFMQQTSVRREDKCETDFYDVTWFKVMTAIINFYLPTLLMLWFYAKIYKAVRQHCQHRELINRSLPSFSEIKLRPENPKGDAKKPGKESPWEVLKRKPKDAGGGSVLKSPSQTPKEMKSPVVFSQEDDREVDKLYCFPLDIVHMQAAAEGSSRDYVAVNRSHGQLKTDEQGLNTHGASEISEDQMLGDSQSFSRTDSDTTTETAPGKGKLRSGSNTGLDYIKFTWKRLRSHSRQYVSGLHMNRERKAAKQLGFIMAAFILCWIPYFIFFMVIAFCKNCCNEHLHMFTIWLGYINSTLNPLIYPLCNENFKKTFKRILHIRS
In test [2] the target is T2, Histamine H1 receptor. In kind it is functional, cell-based. This is another data set of the same source.
Test [3] has as its target T3, Alpha-2A adrenergic receptor (Homo sapiens, UniProt P08913).
T3 sequence (P08913 whole entry): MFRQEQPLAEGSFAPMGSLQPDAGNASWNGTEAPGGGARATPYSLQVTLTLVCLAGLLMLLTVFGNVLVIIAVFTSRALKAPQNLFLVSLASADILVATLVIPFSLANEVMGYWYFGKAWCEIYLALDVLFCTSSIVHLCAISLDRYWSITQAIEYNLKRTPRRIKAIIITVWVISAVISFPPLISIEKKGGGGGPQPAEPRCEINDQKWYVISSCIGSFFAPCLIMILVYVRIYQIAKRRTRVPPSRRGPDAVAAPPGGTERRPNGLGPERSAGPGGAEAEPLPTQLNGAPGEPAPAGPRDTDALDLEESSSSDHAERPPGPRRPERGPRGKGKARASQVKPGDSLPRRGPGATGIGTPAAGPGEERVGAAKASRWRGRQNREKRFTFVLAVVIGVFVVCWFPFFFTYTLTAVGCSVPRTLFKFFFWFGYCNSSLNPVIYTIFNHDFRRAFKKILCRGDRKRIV

The target in test [4] is Gamma-aminobutyric acid type B receptor subunit 1 (Homo sapiens, UniProt Q9UBS5).
Gamma-aminobutyric acid type B receptor subunit 1, sequence (Q9UBS5 whole entry): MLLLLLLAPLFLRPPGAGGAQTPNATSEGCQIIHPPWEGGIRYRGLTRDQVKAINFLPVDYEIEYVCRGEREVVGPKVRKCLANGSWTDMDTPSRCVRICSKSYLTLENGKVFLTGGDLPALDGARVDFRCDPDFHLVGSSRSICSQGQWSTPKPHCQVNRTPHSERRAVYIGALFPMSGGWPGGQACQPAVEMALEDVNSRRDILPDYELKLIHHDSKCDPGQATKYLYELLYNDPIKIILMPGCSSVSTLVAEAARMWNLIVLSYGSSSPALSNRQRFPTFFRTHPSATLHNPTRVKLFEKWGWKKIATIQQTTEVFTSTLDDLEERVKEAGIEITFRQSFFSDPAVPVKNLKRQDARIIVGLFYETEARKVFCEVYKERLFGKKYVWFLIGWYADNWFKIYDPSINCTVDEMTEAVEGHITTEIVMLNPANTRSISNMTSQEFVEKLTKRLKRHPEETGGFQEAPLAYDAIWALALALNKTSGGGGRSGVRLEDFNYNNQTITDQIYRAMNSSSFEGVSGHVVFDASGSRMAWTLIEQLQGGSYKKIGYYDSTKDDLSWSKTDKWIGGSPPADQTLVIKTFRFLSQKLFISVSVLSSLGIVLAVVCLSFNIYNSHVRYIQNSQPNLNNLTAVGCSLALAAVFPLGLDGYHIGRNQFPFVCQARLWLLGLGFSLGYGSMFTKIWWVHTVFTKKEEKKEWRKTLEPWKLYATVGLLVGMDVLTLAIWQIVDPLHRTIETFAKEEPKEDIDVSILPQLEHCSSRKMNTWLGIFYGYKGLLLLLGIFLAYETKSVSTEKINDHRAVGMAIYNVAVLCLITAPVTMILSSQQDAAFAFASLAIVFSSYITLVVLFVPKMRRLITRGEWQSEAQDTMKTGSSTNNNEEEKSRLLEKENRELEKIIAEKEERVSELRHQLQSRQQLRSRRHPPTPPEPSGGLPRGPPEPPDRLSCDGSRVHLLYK
The target of test [5] is Beta-1 adrenergic receptor (Homo sapiens, UniProt P08588). In kind it is functional, cell-based.
Beta-1 adrenergic receptor, sequence (P08588 whole entry): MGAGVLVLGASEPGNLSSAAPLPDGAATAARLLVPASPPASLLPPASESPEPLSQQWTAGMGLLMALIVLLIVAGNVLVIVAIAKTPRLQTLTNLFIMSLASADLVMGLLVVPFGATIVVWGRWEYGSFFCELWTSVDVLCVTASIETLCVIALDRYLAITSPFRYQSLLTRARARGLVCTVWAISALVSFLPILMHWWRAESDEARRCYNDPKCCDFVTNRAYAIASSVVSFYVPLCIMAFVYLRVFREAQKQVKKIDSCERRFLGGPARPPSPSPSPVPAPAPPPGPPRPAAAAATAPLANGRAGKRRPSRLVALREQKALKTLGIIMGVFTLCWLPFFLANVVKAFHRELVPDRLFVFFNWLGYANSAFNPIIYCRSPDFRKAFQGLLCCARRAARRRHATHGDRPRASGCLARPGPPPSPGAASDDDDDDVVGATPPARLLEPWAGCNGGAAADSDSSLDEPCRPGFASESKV
The target of test [6] is T4, Muscarinic acetylcholine receptor M4 (Homo sapiens, UniProt P08173).
T4 sequence (P08173 whole entry): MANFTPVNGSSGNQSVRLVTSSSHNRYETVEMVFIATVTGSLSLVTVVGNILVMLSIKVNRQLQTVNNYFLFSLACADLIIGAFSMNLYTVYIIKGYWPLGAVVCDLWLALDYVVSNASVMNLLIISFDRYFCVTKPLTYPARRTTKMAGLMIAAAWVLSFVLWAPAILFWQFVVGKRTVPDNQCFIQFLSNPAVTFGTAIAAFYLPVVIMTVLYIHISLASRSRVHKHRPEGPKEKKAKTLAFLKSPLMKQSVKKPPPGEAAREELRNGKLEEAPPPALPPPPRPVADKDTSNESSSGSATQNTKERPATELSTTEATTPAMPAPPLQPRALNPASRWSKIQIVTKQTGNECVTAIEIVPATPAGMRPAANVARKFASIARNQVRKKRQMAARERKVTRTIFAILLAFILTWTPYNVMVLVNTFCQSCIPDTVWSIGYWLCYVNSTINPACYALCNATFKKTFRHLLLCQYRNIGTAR

In test [7] the target is T5, Muscarinic acetylcholine receptor M5 (Homo sapiens, UniProt P08912).
T5 sequence (P08912 whole entry): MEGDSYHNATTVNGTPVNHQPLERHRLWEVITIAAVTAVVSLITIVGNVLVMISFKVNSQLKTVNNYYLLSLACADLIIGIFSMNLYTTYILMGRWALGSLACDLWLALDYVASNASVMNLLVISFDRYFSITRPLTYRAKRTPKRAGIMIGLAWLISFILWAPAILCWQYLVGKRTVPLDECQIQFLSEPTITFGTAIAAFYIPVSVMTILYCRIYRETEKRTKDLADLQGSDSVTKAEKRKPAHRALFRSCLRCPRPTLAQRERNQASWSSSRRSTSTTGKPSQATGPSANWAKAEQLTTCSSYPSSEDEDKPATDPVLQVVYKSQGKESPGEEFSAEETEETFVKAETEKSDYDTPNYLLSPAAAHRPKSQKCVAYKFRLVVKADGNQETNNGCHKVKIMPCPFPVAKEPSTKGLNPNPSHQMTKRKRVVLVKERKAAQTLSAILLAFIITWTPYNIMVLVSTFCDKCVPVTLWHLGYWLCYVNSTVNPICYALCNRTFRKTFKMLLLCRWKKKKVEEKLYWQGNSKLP

The target in the next test is D(1B) dopamine receptor (Homo sapiens, UniProt P21918).
D(1B) dopamine receptor, sequence (P21918 whole entry): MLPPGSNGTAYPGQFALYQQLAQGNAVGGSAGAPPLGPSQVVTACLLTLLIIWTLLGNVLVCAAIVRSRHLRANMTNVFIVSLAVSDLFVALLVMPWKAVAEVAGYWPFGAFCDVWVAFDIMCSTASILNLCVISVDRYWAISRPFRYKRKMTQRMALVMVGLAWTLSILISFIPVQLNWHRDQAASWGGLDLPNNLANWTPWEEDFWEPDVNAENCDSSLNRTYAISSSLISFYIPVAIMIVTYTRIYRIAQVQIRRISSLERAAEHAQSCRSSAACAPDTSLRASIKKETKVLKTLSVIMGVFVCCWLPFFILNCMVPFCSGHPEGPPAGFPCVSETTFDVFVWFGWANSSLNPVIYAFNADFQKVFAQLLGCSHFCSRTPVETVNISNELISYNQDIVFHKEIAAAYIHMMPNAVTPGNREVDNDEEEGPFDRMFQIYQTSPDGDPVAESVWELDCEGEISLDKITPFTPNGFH
The target in test [8] is 5-hydroxytryptamine receptor 5A (Homo sapiens, UniProt P47898).
5-hydroxytryptamine receptor 5A, sequence (P47898 whole entry): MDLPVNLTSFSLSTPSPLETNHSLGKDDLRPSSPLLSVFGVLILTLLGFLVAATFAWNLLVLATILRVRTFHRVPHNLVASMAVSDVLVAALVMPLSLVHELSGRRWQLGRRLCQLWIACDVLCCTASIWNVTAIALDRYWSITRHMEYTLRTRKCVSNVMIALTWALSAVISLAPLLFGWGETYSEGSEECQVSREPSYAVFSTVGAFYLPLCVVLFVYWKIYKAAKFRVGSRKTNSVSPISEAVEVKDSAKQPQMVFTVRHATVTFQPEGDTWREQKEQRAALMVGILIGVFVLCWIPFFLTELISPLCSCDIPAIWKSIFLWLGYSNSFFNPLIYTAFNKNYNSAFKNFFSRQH
The target of test [9] is Rod cGMP-specific 3',5'-cyclic phosphodiesterase subunit alpha (Homo sapiens, UniProt P16499). The test is classed as functional.
Rod cGMP-specific 3',5'-cyclic phosphodiesterase subunit alpha, sequence (P16499 whole entry): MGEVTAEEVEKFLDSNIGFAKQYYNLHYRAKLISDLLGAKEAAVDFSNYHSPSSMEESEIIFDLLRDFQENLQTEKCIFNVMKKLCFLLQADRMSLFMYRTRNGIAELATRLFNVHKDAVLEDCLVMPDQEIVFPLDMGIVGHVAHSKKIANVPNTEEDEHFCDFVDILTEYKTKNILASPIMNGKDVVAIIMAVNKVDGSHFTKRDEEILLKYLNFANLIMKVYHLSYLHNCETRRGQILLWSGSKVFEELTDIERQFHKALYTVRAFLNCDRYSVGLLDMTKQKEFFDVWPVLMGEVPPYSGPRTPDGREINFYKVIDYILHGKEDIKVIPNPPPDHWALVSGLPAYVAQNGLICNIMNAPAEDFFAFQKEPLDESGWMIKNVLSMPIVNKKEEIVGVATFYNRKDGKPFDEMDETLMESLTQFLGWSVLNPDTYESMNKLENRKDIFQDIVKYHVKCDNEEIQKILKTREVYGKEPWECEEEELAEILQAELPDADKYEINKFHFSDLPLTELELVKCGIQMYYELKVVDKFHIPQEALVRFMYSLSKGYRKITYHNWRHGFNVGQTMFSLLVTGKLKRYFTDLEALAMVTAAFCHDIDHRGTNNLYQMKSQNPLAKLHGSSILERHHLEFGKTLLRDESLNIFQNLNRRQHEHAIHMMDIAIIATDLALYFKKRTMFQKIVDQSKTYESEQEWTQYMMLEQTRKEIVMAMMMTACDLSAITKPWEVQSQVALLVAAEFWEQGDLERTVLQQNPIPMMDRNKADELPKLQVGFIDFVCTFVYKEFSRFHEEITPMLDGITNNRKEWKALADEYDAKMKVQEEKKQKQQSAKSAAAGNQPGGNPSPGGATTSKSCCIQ
Further: assay procedure not described here.

Consider `CS(=O)(=O)Nc1cc2occ(NC=O)c(=O)c2cc1Oc1ccccc1` [IGURATIMOD], for which, on Androgen receptor, the concentration at half-maximal activity (AC50) (commonly the concentration at which the activity in the assay is half-maximal) was > 30 µM.
Turning to `CCCC(=O)N1CCCN(c2nc(N)c3cc(OC)c(OC)cc3n2)CC1` [BUNAZOSIN], the half-maximal activity concentration (AC50) at Androgen receptor, at Histamine H1 receptor [1] and at Histamine H1 receptor [2] was > 30 µM in each case.
Turning to `CC(C)(N)Cc1ccc(Cl)cc1` [CHLORPHENTERMINE], the AC50 in test [3] was > 10 µM.
Consider `O=P(O)(O)C(O)(Cc1cccnc1)P(=O)(O)O` [RISEDRONIC ACID], for which the AC50 in test [4] and in [3] was > 10 µM in each case.
Turning to `CC(C(O)c1ccc(O)cc1)N1CCC(Cc2ccccc2)CC1` (stereo not given) [IFENPRODIL], the AC50 in test [5] is > 30 µM.
On to `CN(C)CCCN1c2ccccc2Sc2ccccc21` [PROMAZINE], for which the half-maximal activity concentration (AC50) is 1.44 µM in test [6]; 0.589 µM in [7]; 5.78 µM at D(1B) dopamine receptor; 0.823 µM in test [8]; > 10 µM in test [9]; 5 µM in test [3].
Take `CN(CCCN1c2ccccc2CCc2ccccc21)CC(=O)c1ccc(Cl)cc1` [LOFEPRAMINE]: the half-maximal activity concentration (AC50) in test [5] is > 30 µM.
Regarding `O=C1CCC(N2C(=O)c3ccccc3C2=O)C(=O)N1` (stereo not given) [THALIDOMIDE], the concentration at half-maximal activity (AC50) in test [4] and in test [3] was > 10 µM throughout.
Take `C=C1C[C@@H]2[C@H](CC[C@]3(C)C(=O)CC[C@@H]23)[C@@]2(C)C=CC(=O)C=C12` [EXEMESTANE]: the AC50 on Histamine H1 receptor [1] and on Histamine H1 receptor [2] was > 30 µM each time.
With `O=C(Nc1ccccc1)OCC(CN1CCCCC1)OC(=O)Nc1ccccc1` (stereo not given) [DIPERODON], the AC50 (in [6]; in test [7]; on D(1B) dopamine receptor; in [8]; in test [9]; in test [3]) was > 10 µM each time.
